Format in all cases: cell-based
Series [1] in a line: Cytotoxicity MTT assay on PMA-differentiated THP-1 macrophages. To be noted: human; PMA-differentiated THP-1 macrophages, 72 h, MTT; 100 to 12.5 µM tested; read-out: Cytotoxicity CC50 (µM) 95% CI, THP-1. As to the method: A human leukemia cell line, THP-1 (ATCC® TIB-202™), was cultured in RPMI-1640 medium supplemented with 10% heat-inactivated fetal bovine serum (FBS), 2 mM L-glutamine, 100 IU/mL penicillin/streptomycin, and 20 mM HEPES. The cell line was maintained in a humidified incubator at 37 °C and 5% CO2 by subculture every 3 days in 20 mL of media at a concentration of 2 × 10^5/mL in a T75 flask. All cell culture reagents were purchased from Lonza-Bioscience (Morrisville, NC, USA).
The cytotoxicity effect of compounds on THP-1-derived macrophages was assessed by colorimetric MTT assay (3-(4,5-dimethylthiazol-2-yl)-2,5-diphenyl tetrazolium bromide). Briefly, THP-1 cells were suspended in RPMI complete medium at a density of 1 × 10^6 cells/mL and 100 μL/well and were seeded in a 96-well plate and differentiated into macrophages by addition of 40 ng/mL of phorbol-myristate 13-acetate (PMA, Sigma, Saint Louis, MI, USA) for 24 h, followed by replacement with fresh medium for 24 more h. Subsequently, the cells were incubated with 100 μL of compounds ranging from 100 to 12.5 μM after dilution in the RPMI complete medium. Each condition was carried out in quadruplicate. After 72 h of incubation at 37 °C and 5% CO2, the medium was removed, and 200 μL of 0.5 mg/mL MTT solution diluted in RPMI was added. The plates were incubated for an additional 4 h. Then, 160 μL of media was removed, and the same volume of 2-propanol was added. Absorbance was read at 570 nm using a Synergy 2 Multi-Mode Reader (Biotek, Winooski, VT, USA). Cytotoxicity was evaluated by the determination of the CC50 value (drug concentration that reduced the percentage of viable cells by 50%) and calculated by non-linear regression analysis using GraphPad Prism software, version 8.1.1 for Windows (GraphPad Software, San Diego, CA, USA). The results represent the average of at least three independent experiments. For each compound, the selectivity index (SI) was calculated as the ratio between cytotoxicity in THP-1 (CC50, 72 h) and activity against parasites (IC50, 72 h).
(In general: Tetrazolium dyes change colour on reduction, which living cells bring about.)

Series [2] concerns Aspergillus fumigatus ATCC 240305. Put plainly: Antifungal broth microdilution (CLSI M38-A2), MIC/MLC. Particulars: for MIC: Aspergillus fumigatus, ATCC240305, broth microdilution, 16 to 512 µg/mL, 48 h at 36 °C. As to the method:
(§1) All tested compounds (9a–9d, 10a–10c, 13, 14, and eugenol (1)) were prepared in DMSO (Sigma-Aldrich, St. Louis, MO, USA) at a concentration of 10 mg/mL. The reference drugs used (voriconazole (Sigma-Aldrich, St. Louis, MO, USA) for fungi and quality control; gentamicin (Sigma-Aldrich, St. Louis, MO, USA) for bacterial and quality control) were prepared at 6.4 mg/mL. The stock solutions of the compounds were stored at –20 °C until immediately before the assays and then were diluted in fresh culture medium, RPMI-1640 medium (Biochrom AG, Berlin, Germany) buffered with 3-(N-morpholino)propanesulfonic acid (MOPS—Sigma-Aldrich, St. Louis, MO, USA) for fungi and cation-adjusted Mueller–Hinton broth (MHBII—Becton Dickinson, France) for bacteria, henceforth referred to as RPMI and MHB, respectively.
(§2) Fungal strains, including reference strains and clinical isolates, were used for the study of the antifungal activity: a yeast reference strain from American Type Culture Collection (ATCC), Candida albicans ATCC 10231; filamentous fungi reference strain Aspergillus fumigatus ATCC 240305; and a clinical isolate of dermatophytes Trichophyton rubrum FF5. Candida krusei ATCC 6258 was used as a quality control. All fungal strains were stored in Sabouraud dextrose broth (SDB—Bio-Mèrieux, Marcy L’Etoile, France) with glycerol (20%) at −80 °C and were subcultured in Sabouraud dextrose agar (SDA—Bio-Mèrieux, Marcy L’Etoile, France) for 24–72 h (yeasts and A. fumigatus) or 5–7 days (T. rubrum) before each assay to obtain optimal growth and purity conditions. Two bacteria strains were used, one Gram positive and one Gram negative: Staphylococcus aureus ATCC 25923 and Escherichia coli ATCC 25922, respectively. The bacterial strains were stored in trypticase soy broth (TSB—Biolife, Milan, Italy) with glycerol (10%) at −80 °C and subcultured in Mueller–Hinton agar (MHA—Bio-Mèrieux, Marcy L’Etoile, France) for 24 h before each assay.
(§3) For the purpose of quantitatively measuring the antifungal activity in vitro, a broth microdilution method was used to determine the MICs using the CLSI reference protocols M27-A3 [27] for yeasts and M38-A2 [28] for filamentous fungi. In short, two-fold serial dilutions of each stock solution were prepared using RPMI medium (pH 7) to obtain a range of test concentrations from 16 to 512 μg/mL. The yeasts or spore suspensions were prepared from 24 to 72-h cultures (yeasts and Aspergillus) or from 5–7 days of cultures (dermatophyte) in saline solution (with a drop of Tween 20 for the filamentous fungi). The transmittance of the cell density of yeasts was adjusted to 0.5 McFarland standard, and for filamentous fungi, the spores were counted using a Neubauer camera. Dilutions were performed using RPMI to obtain cell final concentrations in the plate of 0.5–2.5 × 10^3 colony forming units (CFU)/mL for yeasts, 0.4–5 × 10^4 CFU/mL for Aspergillus, and 1–3 × 10^3 CFU/mL for dermatophytes. Plates with the prepared serial dilutions of the tested compounds were inoculated with the same volume of the fungal suspension, and sterility (wells with only culture medium), growth (wells with cell suspensions in culture medium), and DMSO controls (wells with cell suspensions in culture medium containing 1% DMSO) were included in each assay. […] For the tested compounds, MIC values were considered the minimum concentration that inhibited the yeast growth by 100% compared to the growth control. The reference drug, voriconazole, was tested against C. krusei ATCC 6258 as a quality control, and the results were within the limits of CLSI reference documents.
(§4) After MIC readings, 10 μL of suspension were collected from wells corresponding to the MIC and the highest concentration following the MIC and were deposited in SDA plates. The plates were incubated following the conditions previously mentioned for the MIC evaluation, and the MLC was determined as the lowest concentration at which no fungal growth is observed.

The test system of a further series is Trichophyton rubrum FF5. Described as above. Particulars: for MIC: Trichophyton rubrum, FF5, broth microdilution, read-out: MIC T. rubrum; for MIC / MIC T. rubrum: 16 to 512 µg/mL, 5–7 days at 26 °C; for MIC T. rubrum: broth microdilution; for MLC T. rubrum: minimum lethal concentration, subculture on SDA after MIC reading. As to the method: as §1, §2, §3, §4

Converted amounts (≈) assume the structure as drawn.

For the compound `C=CCc1cc(Cn2cc(C(=O)Nc3ccccc3C(N)=O)nn2)c(O)c(OC)c1` [9a, 1-(5-allyl-2-hydroxy-3-methoxybenzyl)-N-(2-carbamoylphenyl)-1H-1,2,3-triazole-4-carboxamide], the CC50 (usually the concentration giving 50% cytotoxicity) at 72 h in series [1] was greater than 100 µM. Moreover, the MIC (as a rule, the least concentration at which growth counts as inhibited) in series [2] was greater than 512 µg/mL. In the series with Trichophyton rubrum FF5, the MIC was determined as 512 µg/mL (≈ 1260 µM), the “MIC T. rubrum” value is listed as 256 to 512 µg/mL and the “MLC T. rubrum” value is listed as greater than 512 µg/mL.
In the case of `C=CCc1cc(Cn2cc(C(=O)Nc3ccc(F)cc3C(N)=O)nn2)c(O)c(OC)c1` [9c, 1-(5-allyl-2-hydroxy-3-methoxybenzyl)-N-(2-carbamoyl-4-fluorophenyl)-1H-1,2,3-triazole-4-carboxamide], the CC50 at 72 h in series [1] came to 45.8 µM. Besides, the MIC (in series [2]; in the series on Trichophyton rubrum FF5) was greater than 512 µg/mL throughout.
For `C=CCc1cc(Cn2cc(C(=O)Nc3ccc(Cl)cc3C(N)=O)nn2)c(O)c(OC)c1` [9d, 1-(5-allyl-2-hydroxy-3-methoxybenzyl)-N-(2-carbamoyl-4-chlorophenyl)-1H-1,2,3-triazole-4-carboxamide], in series [1], the CC50 at 72 h was greater than 100 µM. In addition, the MIC in series [2] was greater than 512 µg/mL. Moreover, in the series with Trichophyton rubrum FF5, the MIC was found to be 512 µg/mL (≈ 1160 µM), the “MIC T. rubrum” value fell in the range of 256 to 512 µg/mL and the “MLC T. rubrum” value is greater than 512 µg/mL.
Take `C=CCc1cc(Cn2cc(-c3nc4ccc(OC)cc4c(=O)[nH]3)nn2)c(O)c(OC)c1` [10b, 2-(1-(5-allyl-2-hydroxy-3-methoxybenzyl)-1H-1,2,3-triazol-4-yl)-6-methoxyquinazolin-4(3H)-one]: the CC50 at 72 h in series [1] was greater than 100 µM. The MIC (in series [2]; with Trichophyton rubrum FF5) was greater than 512 µg/mL in each case.
On to `C=CCc1cc(Cn2cc(-c3nc4ccccc4c(=O)[nH]3)nn2)c(O)c(OC)c1` [10a, 2-(1-(5-allyl-2-hydroxy-3-methoxybenzyl)-1H-1,2,3-triazol-4-yl)quinazolin-4(3H)-one], for which the CC50 at 72 h in series [1] was greater than 100 µM. This compound also registered an MIC in series [2] greater than 512 µg/mL. Besides, in the series on Trichophyton rubrum FF5, the MIC is 512 µg/mL (≈ 1310 µM), the “MIC T. rubrum” value is 256 to 512 µg/mL and the “MLC T. rubrum” value was greater than 512 µg/mL.
With `C=CCc1cc(Cn2cc(-c3nc4ccc(F)cc4c(=O)[nH]3)nn2)c(O)c(OC)c1` [10c, 2-(1-(5-allyl-2-hydroxy-3-methoxybenzyl)-1H-1,2,3-triazol-4-yl)-6-fluoroquinazolin-4(3H)-one], the CC50 at 72 h in series [1] is greater than 100 µM. This compound also came in with an MIC in series [2] greater than 512 µg/mL. Moreover, in the series with Trichophyton rubrum FF5, the MIC worked out at 512 µg/mL (≈ 1260 µM), the “MIC T. rubrum” value was 256 to 512 µg/mL and the “MLC T. rubrum” value was greater than 512 µg/mL.
On to `C=CCc1ccc(OCc2cn(CC(=O)Nc3ccccc3C(=O)O)nn2)c(OC)c1` [compound 13, 2-(2-(4-((4-allyl-2-methoxyphenoxy)methyl)-1H-1,2,3-triazol-1-yl)acetamido) benzoic acid], for which the CC50 at 72 h in series [1] is greater than 100 µM. Further, the MIC (in series [2]; with Trichophyton rubrum FF5) was greater than 512 µg/mL each time.
In the case of `C=CCc1cc(Cn2cc(-c3nc4ccccc4c(=O)o3)nn2)c(O)c(OC)c1` [compound 14, 2-(1-(5-allyl-2-hydroxy-3-methoxybenzyl)-1H-1,2,3-triazol-4-yl)-4H-benzo[d][1,3]oxazin-4-one], the CC50 at 72 h in series [1] is greater than 100 µM. The compound further gave an MIC in series [2] greater than 512 µg/mL. Besides, in the series on Trichophyton rubrum FF5, the MIC was in the range of 256 to 512 µg/mL (≈ 656 to 1310 µM), the “MIC T. rubrum” value lay within 256 to 512 µg/mL and the “MLC T. rubrum” value was greater than 512 µg/mL.
On to `C=CCc1ccc(O)c(OC)c1` [Eugenol, eugenol, reference compound], for which, in series [1], the CC50 at 72 h was greater than 100 µM. Further, the MIC is 512 µg/mL (≈ 3120 µM) in series [2] and 256 µg/mL (≈ 1560 µM) with Trichophyton rubrum FF5. For the same compound, the “MLC A. fumigatus” value in series [2] (minimum lethal concentration, subculture on SDA after MIC reading) is recorded as greater than 512 µg/mL.
As for `C=CCc1cc(Cn2cc(C(=O)Nc3ccc(OC)cc3C(N)=O)nn2)c(O)c(OC)c1` [9b, 1-(5-allyl-2-hydroxy-3-methoxybenzyl)-N-(2-carbamoyl-4-methoxyphenyl)-1H-1,2,3-triazole-4-carboxamide], in series [1], the CC50 at 72 h is greater than 100 µM. For the same compound, the MIC (in series [2]; in the series with Trichophyton rubrum FF5) was greater than 512 µg/mL throughout.

For the origin of these results see publication PMC10671849, “Synthesis and Evaluation of Marine-Inspired Compounds Result in Hybrids with Antitrypanosomal and Antileishmanial Activities” (Marine Drugs, 2023).
